Several values for one entry are separate records, joined by “and”; a condition that tells them apart may be missing. Equal values may be shown once.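 1) Cells in 96-well plates. 2) Compound, 48 h, 5 concentrations. 3) Linear interpolation between surrounding doses. 4) Unreached endpoint = highest concentration. GI50 is the concentration that inhibits growth by half. TGI denotes the concentration required for complete inhibition of growth.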
Columns and labels:
Test in all cases: NCI tumour cell line growth inhibition, 48 h
A498 renal = tested on: A498 renal
A549 NSCLC = tested on: A549 NSCLC
CAKI-1 renal = tested on: CAKI-1 renal
CCRF-CEM leukemia = tested on: CCRF-CEM leukemia
COLO 205 colon = tested on: COLO 205 colon
DLD-1 colon = tested on: DLD-1 colon
DMS 114 small cell lung = tested on: DMS 114 small cell lung
DMS 273 small cell lung = tested on: DMS 273 small cell lung
EKVX NSCLC = tested on: EKVX NSCLC
HCC-2998 colon = tested on: HCC-2998 colon
HCT-116 colon = tested on: HCT-116 colon
HCT-15 colon = tested on: HCT-15 colon
HL-60(TB) leukemia = tested on: HL-60(TB) leukemia
HOP-18 NSCLC = tested on: HOP-18 NSCLC
HOP-62 NSCLC = tested on: HOP-62 NSCLC
HOP-92 NSCLC = tested on: HOP-92 NSCLC
HT29 colon = tested on: HT29 colon
IGROV1 ovarian = tested on: IGROV1 ovarian
K-562 leukemia = tested on: K-562 leukemia
KM12 colon = tested on: KM12 colon
KM20L2 colon = tested on: KM20L2 colon
LOX IMVI melanoma = tested on: LOX IMVI melanoma
M19-MEL melanoma = tested on: M19-MEL melanoma
MALME-3M melanoma = tested on: MALME-3M melanoma
MCF7 breast = tested on: MCF7 breast
MOLT-4 leukemia = tested on: MOLT-4 leukemia
NCI-H226 lung = tested on: NCI-H226 lung
NCI-H23 lung = tested on: NCI-H23 lung
NCI-H460 lung = tested on: NCI-H460 lung
NCI-H522 lung = tested on: NCI-H522 lung
NCI/ADR-RES ovarian = tested on: NCI/ADR-RES ovarian
OVCAR-3 ovarian = tested on: OVCAR-3 ovarian
OVCAR-4 ovarian = tested on: OVCAR-4 ovarian
OVCAR-5 ovarian = tested on: OVCAR-5 ovarian
OVCAR-8 ovarian = tested on: OVCAR-8 ovarian
P388 leukemia = tested on: P388 leukemia
P388/ADR leukemia = tested on: P388/ADR leukemia
RPMI-8226 leukemia = tested on: RPMI-8226 leukemia
RXF 393 renal = tested on: RXF 393 renal
SF-268 CNS = tested on: SF-268 CNS
SF-295 CNS = tested on: SF-295 CNS
SF-539 CNS = tested on: SF-539 CNS
SK-MEL-2 melanoma = tested on: SK-MEL-2 melanoma
SK-MEL-28 melanoma = tested on: SK-MEL-28 melanoma
SK-MEL-5 melanoma = tested on: SK-MEL-5 melanoma
SK-OV-3 ovarian = tested on: SK-OV-3 ovarian
SN12C renal = tested on: SN12C renal
SN12K1 renal = tested on: SN12K1 renal
SNB-19 CNS = tested on: SNB-19 CNS
SNB-75 CNS = tested on: SNB-75 CNS
SNB-78 CNS = tested on: SNB-78 CNS
SW-620 colon = tested on: SW-620 colon
U251 CNS = tested on: U251 CNS
UACC-257 melanoma = tested on: UACC-257 melanoma
UACC-62 melanoma = tested on: UACC-62 melanoma
UO-31 renal = tested on: UO-31 renal
XF 498 CNS = tested on: XF 498 CNS
786-0 renal = tested on: 786-0 renal
ACHN renal = tested on: ACHN renal
LXFL 529 NSCLC = tested on: LXFL 529 NSCLC
M14 melanoma = tested on: M14 melanoma
RXF-631 renal = tested on: RXF-631 renal
SR leukemia = tested on: SR leukemia
TK-10 renal = tested on: TK-10 renal

CCCCCCCCCCSCC(CO)NC(=O)/C=C/c1c(C)[nH]c(=O)[nH]c1=O (stereo unspecified) was tested, and the GI50 (A498 renal) was 1.98 µM and 4.94 µM, the TGI (A498 renal) was greater than 50 µM and the GI50 (A549 NSCLC) was greater than 44.4 µM. For the same compound, the TGI (A549 NSCLC) was greater than 50 µM, the GI50 (CAKI-1 renal) was 1.01 µM and 3.68 µM and the TGI (CAKI-1 renal) was 8.25 µM and > 50 µM. The TGI (CCRF-CEM leukemia) was 3.97 µM and 2.97 µM, the TGI (COLO 205 colon) was 8.39 µM and 17.6 µM and the TGI (DLD-1 colon) was greater than 50 µM. The TGI (DMS 114 small cell lung) was 5.93 µM and 4.33 µM, the GI50 (DMS 273 small cell lung) was 1.97 µM and 4.58 µM and the TGI (DMS 273 small cell lung) was greater than 50 µM. For the same compound, the TGI (EKVX NSCLC) was greater than 42.3 µM, the TGI (HCC-2998 colon) was 7.38 µM and 11.5 µM and the TGI (HCT-116 colon) was greater than 50 µM. The GI50 (HCT-15 colon) was 5.55 µM and 14.7 µM, the TGI (HCT-15 colon) was greater than 50 µM and the TGI (HL-60(TB) leukemia) was > 35.2 µM and 6.35 µM. For the same compound, the GI50 (HOP-18 NSCLC) was 2.91 µM and > 26.8 µM, the TGI (HOP-18 NSCLC) was greater than 50 µM and the TGI (HOP-62 NSCLC) was > 31.1 µM and 31.2 µM. For the same compound, the TGI (HOP-92 NSCLC) was 3.72 µM and > 20.3 µM, the TGI (HT29 colon) was greater than 50 µM and the TGI (IGROV1 ovarian) was greater than 50 µM. The TGI (K-562 leukemia) was greater than 50 µM, the TGI (KM12 colon) was greater than 50 µM and the TGI (KM20L2 colon) was greater than 50 µM. For the same compound, the TGI (LOX IMVI melanoma) was 23.8 µM and > 50 µM, the TGI (M19-MEL melanoma) was 14.8 µM and > 39.5 µM and the TGI (MALME-3M melanoma) was 6.28 µM and 2.78 µM. The TGI (MCF7 breast) was > 19.3 µM and 17.4 µM, the TGI (MOLT-4 leukemia) was 16.8 µM and 9.45 µM and the GI50 (NCI-H226 lung) was 2.18 µM. For the same compound, the TGI (NCI-H226 lung) was > 50 µM and 12.4 µM, the GI50 (NCI-H23 lung) was 1.76 µM and 5.54 µM and the TGI (NCI-H23 lung) was 14.3 µM and > 50 µM. The TGI (NCI-H460 lung) was 18.2 µM and 49.5 µM, the TGI (NCI-H522 lung) was 1.68 µM and 6.76 µM and the TGI (NCI/ADR-RES ovarian) was greater than 50 µM. The TGI (OVCAR-3 ovarian) was 3.05 µM and 9.12 µM, the GI50 (OVCAR-4 ovarian) was 0.912 µM and 0.192 µM and the TGI (OVCAR-4 ovarian) was 4.01 µM. The TGI (OVCAR-5 ovarian) was greater than 50 µM, the TGI (OVCAR-8 ovarian) was 18.6 µM and 10.4 µM and the TGI (P388 leukemia) was 7.15 µM and 6.31 µM. For the same compound, the TGI (P388/ADR leukemia) was greater than 50 µM, the GI50 (RPMI-8226 leukemia) was 19.7 µM and the TGI (RPMI-8226 leukemia) was greater than 50 µM. The TGI (RXF 393 renal) was greater than 25.7 µM, the GI50 (SF-268 CNS) was 0.895 µM and the TGI (SF-268 CNS) was 10.2 µM and > 21.4 µM. It also gave a GI50 (SF-295 CNS) of 14.6 µM, a TGI (SF-295 CNS) greater than 50 µM and a TGI (SF-539 CNS) greater than 36.5 µM. For the same compound, the TGI (SK-MEL-2 melanoma) was 14.3 µM and 5.19 µM, the TGI (SK-MEL-28 melanoma) was greater than 50 µM and the TGI (SK-MEL-5 melanoma) was 8.06 µM and 13.1 µM. The GI50 (SK-OV-3 ovarian) was 1.82 µM and 7.04 µM, the TGI (SK-OV-3 ovarian) was greater than 50 µM and the TGI (SN12C renal) was 17.7 µM and > 32.8 µM. The TGI (SN12K1 renal) was > 35.6 µM and 19.9 µM, the TGI (SNB-19 CNS) was 13.7 µM and 12.4 µM and the TGI (SNB-75 CNS) was 12.9 µM and 18.1 µM. For the same compound, the TGI (SNB-78 CNS) was greater than 31.6 µM, the TGI (SW-620 colon) was greater than 50 µM and the TGI (U251 CNS) was 3.7 µM and 10.7 µM. The GI50 (UACC-257 melanoma) was 1.77 µM and 3.82 µM, the TGI (UACC-257 melanoma) was greater than 50 µM and the TGI (UACC-62 melanoma) was 7.71 µM and 9.48 µM. The TGI (UO-31 renal) was greater than 50 µM and the TGI (XF 498 CNS) was 2.19 µM and 3.61 µM.

Work on CC(=O)O[C@H]1C=CC23OC(=O)[C@]1(C)[C@H]2[C@H](C(=O)O)C12CC(=O)[C@@](CO)(CC[C@H]13)C2 yielded a TGI (786-0 renal) greater than 100 µM, a TGI (A549 NSCLC) greater than 100 µM and a TGI (ACHN renal) greater than 100 µM. It also gave a TGI (CAKI-1 renal) greater than 100 µM, a TGI (CCRF-CEM leukemia) greater than 100 µM and a TGI (COLO 205 colon) greater than 100 µM. The TGI (DLD-1 colon) was greater than 100 µM, the TGI (DMS 273 small cell lung) was greater than 100 µM and the TGI (EKVX NSCLC) was greater than 100 µM. The TGI (HCC-2998 colon) was greater than 100 µM, the TGI (HCT-116 colon) was greater than 100 µM and the TGI (HCT-15 colon) was greater than 100 µM. For the same compound, the TGI (HL-60(TB) leukemia) was greater than 100 µM, the TGI (HOP-18 NSCLC) was greater than 100 µM and the TGI (HOP-62 NSCLC) was greater than 100 µM. The TGI (HOP-92 NSCLC) was greater than 100 µM, the TGI (HT29 colon) was greater than 100 µM and the TGI (IGROV1 ovarian) was greater than 100 µM. The TGI (K-562 leukemia) was greater than 100 µM, the TGI (KM12 colon) was greater than 100 µM and the TGI (KM20L2 colon) was greater than 100 µM. The TGI (LOX IMVI melanoma) was greater than 100 µM, the TGI (LXFL 529 NSCLC) was greater than 100 µM and the TGI (M14 melanoma) was greater than 100 µM. For the same compound, the TGI (M19-MEL melanoma) was greater than 100 µM, the TGI (MOLT-4 leukemia) was greater than 100 µM and the TGI (NCI-H226 lung) was greater than 100 µM. It also gave a TGI (NCI-H23 lung) greater than 100 µM, a TGI (NCI-H460 lung) greater than 100 µM and a TGI (NCI-H522 lung) greater than 100 µM. For the same compound, the TGI (OVCAR-3 ovarian) was greater than 100 µM, the TGI (OVCAR-4 ovarian) was greater than 100 µM and the TGI (OVCAR-5 ovarian) was greater than 100 µM. The TGI (OVCAR-8 ovarian) was greater than 100 µM, the TGI (RPMI-8226 leukemia) was greater than 100 µM and the TGI (RXF 393 renal) was greater than 100 µM. For the same compound, the TGI (RXF-631 renal) was greater than 100 µM, the TGI (SF-268 CNS) was greater than 100 µM and the TGI (SF-295 CNS) was greater than 100 µM. The TGI (SF-539 CNS) was greater than 100 µM, the TGI (SK-MEL-2 melanoma) was greater than 100 µM and the TGI (SK-MEL-28 melanoma) was greater than 100 µM. It also gave a TGI (SK-MEL-5 melanoma) greater than 100 µM, a TGI (SK-OV-3 ovarian) greater than 100 µM and a TGI (SN12C renal) greater than 100 µM. It also gave a TGI (SNB-19 CNS) greater than 100 µM, a TGI (SNB-78 CNS) greater than 100 µM and a TGI (SR leukemia) greater than 100 µM. The TGI (SW-620 colon) was greater than 100 µM, the TGI (TK-10 renal) was greater than 100 µM and the TGI (U251 CNS) was greater than 100 µM. It also gave a TGI (UACC-257 melanoma) greater than 100 µM, a TGI (UACC-62 melanoma) greater than 100 µM and a TGI (UO-31 renal) greater than 100 µM. For the same compound, the TGI (XF 498 CNS) was greater than 100 µM.

From PubChem BioAssay (NCI)
